{"source": "paper PMC9313321", "about": "(Biomedicines, 2022)", "key": {"[1]": {"molecular_target": "T1, electric eel acetylcholinesterase (eeAChE) (Electrophorus electricus, UniProt O42275)", "T1 construct": "purchased Sigma-Aldrich", "T1 sequence (O42275 24-633)": "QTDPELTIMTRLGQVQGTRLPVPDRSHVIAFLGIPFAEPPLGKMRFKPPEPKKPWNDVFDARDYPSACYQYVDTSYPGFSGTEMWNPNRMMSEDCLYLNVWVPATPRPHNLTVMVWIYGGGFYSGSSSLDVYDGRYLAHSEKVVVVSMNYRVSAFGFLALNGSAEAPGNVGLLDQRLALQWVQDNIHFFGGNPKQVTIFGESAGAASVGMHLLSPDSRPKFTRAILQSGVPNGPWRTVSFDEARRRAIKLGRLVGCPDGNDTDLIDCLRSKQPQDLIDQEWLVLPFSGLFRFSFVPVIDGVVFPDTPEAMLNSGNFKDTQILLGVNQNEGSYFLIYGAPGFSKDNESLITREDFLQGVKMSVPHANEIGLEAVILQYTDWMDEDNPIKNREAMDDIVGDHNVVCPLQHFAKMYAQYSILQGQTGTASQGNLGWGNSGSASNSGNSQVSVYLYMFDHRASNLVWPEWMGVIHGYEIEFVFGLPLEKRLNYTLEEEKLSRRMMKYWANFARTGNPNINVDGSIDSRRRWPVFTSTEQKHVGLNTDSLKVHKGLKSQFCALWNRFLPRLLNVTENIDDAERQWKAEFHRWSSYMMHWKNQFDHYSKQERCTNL", "experiment": "biochemical", "experimental": "(§1) The inhibition of electric eel acetylcholinesterase (eeAChE) and equine butyrylcholinesterase (eqBChE), both obtained from Sigma-Aldrich (Burlington, MA, USA), was studied using an adaptation of Elmman’s method, as previously described. For this, tris(hydroxymethyl)aminomethane (TRIS) 50 mM buffer at pH = 8.00, 4-(2-hydroxyethyl)-1-piperazine-ethanesulfonic acid (HEPES) 50 mM buffer at pH = 8.00 and HEPES 50 mM buffer at pH = 8.00 with NaCl 50 mM and MgCl2 20 mM were prepared. […] Working solutions of AChI and BChI were prepared daily by the proper dilution of the stock solutions in distilled water. A working solution of 5,5′-dithiobis-(2-nitrobenzoic acid) (DTNB) 3 mM in HEPES (NaCl, MgCl2) was prepared daily and kept under darkness. Stock solutions of eeAChE and eqBChE were prepared by dissolving the lyophilized powder enzyme in 10 mL of TRIS buffer under ice and they were divided into aliquots of 50 and 5 UN mL^−1 that were stored at −20 °C until needed. Stock solutions of 1 mg of each ligand in 1 mL MeOH (with 20% of DMSO) were prepared and working solutions for each ligand were obtained by the corresponding dilution from the stock solutions. A control measurement with 5 replicates (without ligand) and a calibration curve of 5 points with 3 replicates per point was derived. […] A blank solution containing HEPES (399 μL) and MeOH (50 μL) was prepared at the same time. […] The experiments were performed twice."}, "[2]": {"molecular_target": "equine butyrylcholinesterase (eqBChE) (Equus caballus, UniProt P81908)", "sequence (P81908 whole entry)": "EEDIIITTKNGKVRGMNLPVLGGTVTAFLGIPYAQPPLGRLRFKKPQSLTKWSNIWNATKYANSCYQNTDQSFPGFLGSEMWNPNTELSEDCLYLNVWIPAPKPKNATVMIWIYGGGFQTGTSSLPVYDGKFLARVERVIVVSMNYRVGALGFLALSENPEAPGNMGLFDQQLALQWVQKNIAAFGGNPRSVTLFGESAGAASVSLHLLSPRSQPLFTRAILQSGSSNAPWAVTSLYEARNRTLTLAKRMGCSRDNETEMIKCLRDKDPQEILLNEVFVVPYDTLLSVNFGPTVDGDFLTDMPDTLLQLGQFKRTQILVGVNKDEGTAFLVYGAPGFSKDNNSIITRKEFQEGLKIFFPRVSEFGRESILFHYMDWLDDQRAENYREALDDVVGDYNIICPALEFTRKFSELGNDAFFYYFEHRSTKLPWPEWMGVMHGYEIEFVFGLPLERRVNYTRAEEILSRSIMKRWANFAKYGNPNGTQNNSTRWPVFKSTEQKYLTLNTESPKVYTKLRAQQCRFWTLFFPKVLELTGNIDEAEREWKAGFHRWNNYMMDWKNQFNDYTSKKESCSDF", "experiment": "biochemical", "details": "for SI (selectivity index): IC50 (AChE)/IC50 (BChE), eeAChE and eqBChE; for IC50: eqBChE, 15 min pre-incubation, pH 8.00, read-out: BChE Inhib IC50", "experimental": "as §1"}, "Aβ42 + Cu(II) fibrils": {"molecular_target": "T2, Aβ42 + Cu(II) fibrils (Homo sapiens, UniProt P05067)", "T2 construct": "Beta-amyloid protein, fragment 1-42; purchased Sigma-Aldrich", "T2 sequence (P05067 672-713 limits assumed)": "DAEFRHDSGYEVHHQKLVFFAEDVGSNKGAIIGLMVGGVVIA", "experiment": "TEM assay of Aβ42 fibrils in the presence of Cu(II)", "format": "biochemical", "details": "48 h 37 °C; for Aβ42 fibril width: TEM, CAβ42 = CCu = CL = 50 µM, Aβ42 + Cu(II) 6.8 ± 0.3 nm", "experimental": "To perform the TEM assays, commercial Aβ42 purchased from Sigma-Aldrich was pre-treated with pure HFIP, a beta-sheet disruptor, to obtain homogeneous and monomeric Aβ42 [54]. Then, 222 µL of HFIP was added to 1 mg of Aβ42, after which the mixture was vortexed and aliquoted into Eppendorfs. The Eppendorfs were placed in a SpeedVac at 45 °C for 30 min until all HFIP was evaporated. Pre-treated Aβ42 was stored at −20 °C until use. To start the amyloid incubations, pre-treated Aβ42 was equilibrated at room temperature for 30 min. A solution of 5 mM was obtained by dissolution in DMSO and sonication for 5 min. Subsequently, 10 mM HCl was added to obtain a working Aβ42 solution of 200 µM. Stock solutions of Cu(II) and RIV–BIM compounds (4a–d, 5a,b and 5d) at 200 µM were prepared on the same day and working solutions of Aβ42, Aβ42 + Cu(II), Aβ42 + RIV–BIM and Aβ42 + Cu(II) + RIV–BIM (CAβ42 = CCu = CL = 50 µM) were prepared by diluting stock solutions in 10 mM HCl. Working solutions were incubated for 48 h at 37 °C before being analyzed by TEM. Samples were negatively stained with uranyl acetate 2% (w/v) and analyzed at 100 kv with a JEOL JEM 1400 Plus transmission electron microscope. Fibrils of Aβ42 alone were compared with Aβ42 + RIV–BIM fibrils, and fibrils of Aβ42 + Cu(II) were compared with Aβ42 + Cu(II) + RIV–BIM in order to evaluate the inhibition of the amyloid aggregation, and the widths and lengths of fibrils were measured for each sample. The ImageJ program was used to measure the fibrils (n = 200).\nWhen fibrils were incubated in the presence of Cu(II) for 48 h (Figure 6), stronger amyloid elongated aggregation was evidenced. In fact, incubation with Cu(II) in the absence of RIV–BIM compounds (Figure 5a) presented higher aggregation than that corresponding to Aβ42 alone (Figure 5a). Based on the TEM images contained in Figure 6, compounds belonging to the linear series of hybrids (4a–4d) seem to exert minor effects on Cu(II)-induced Aβ42 aggregation according to the previous fluorescence data.\nFibril width for Aβ42 + Cu(II) + RIV–BIM incubations was also measured (Figure 5b). When Aβ42 was incubated with Cu(II) ((6.8 ± 0.3) nm), the amyloid fibrils suffered a width increase of 38.8%, in contrast to Aβ42 alone (Figure 5a)."}}, "note": "Several values for one entry are separate records, joined by “and”; a condition that tells them apart may be missing. Equal entries are not always repeated.", "data": [{"smiles": "CCN(C)C(=O)Oc1cccc(NC(=O)c2ccc3nc(-c4ccccc4O)[nH]c3c2)c1", "note": "[Compound 4a, 3-(2-(2-Hydroxyphenyl)-1H-benzo[d]imidazole-6-carboxamido)phenyl Ethylmethylcarbamate]", "values": [{"measurement": "IC50", "setting": "[1]", "value": "17.6 ± 0.6", "unit": "µM"}, {"measurement": "SI (selectivity index)", "setting": "[2]", "value": 3.03}, {"measurement": "IC50", "setting": "[2]", "value": "5.85 ± 0.03", "unit": "µM"}, {"measurement": "Aβ42 fibril width", "setting": "Aβ42 + Cu(II) fibrils", "value": 4.7, "unit": "nm"}]}, {"smiles": "CCN(C)C(=O)Oc1cccc(CNC(=O)c2ccc3nc(-c4ccccc4O)[nH]c3c2)c1", "note": "[Compound 4b, 3-((2-(2-Hydroxyphenyl)-1H-benzo[d]imidazole-6-carboxamido)methyl) Phenyl Ethylmethylcarbamate]", "values": [{"measurement": "IC50", "setting": "[1]", "value": "14 ± 2", "unit": "µM"}, {"measurement": "SI (selectivity index)", "setting": "[2]", "value": 2.17}, {"measurement": "IC50", "setting": "[2]", "value": "6.5 ± 0.4", "unit": "µM"}, {"measurement": "Aβ42 fibril width", "setting": "Aβ42 + Cu(II) fibrils", "value": 4.8, "unit": "nm"}]}, {"smiles": "CCN(C)C(=O)Oc1cccc(CCNC(=O)c2ccc3nc(-c4ccccc4O)[nH]c3c2)c1", "note": "[Compound 4c, 3-(2-(2-(2-Hydroxyphenyl)-1H-benzo[d]imidazole-6-carboxamido)ethyl) Phenylethylmethylcarbamate]", "values": [{"measurement": "IC50", "setting": "[1]", "value": "17.7 ± 0.8", "unit": "µM"}, {"measurement": "SI (selectivity index)", "setting": "[2]", "value": 3.69}, {"measurement": "IC50", "setting": "[2]", "value": "4.8 ± 0.1", "unit": "µM"}, {"measurement": "Aβ42 fibril width", "setting": "Aβ42 + Cu(II) fibrils", "value": 4.6, "unit": "nm"}]}, {"smiles": "CCN(C)C(=O)Oc1ccc(CCCNC(=O)c2ccc3nc(-c4ccccc4O)[nH]c3c2)cc1", "note": "[Compound 4d, 4-(3-(2-(2-Hydroxyphenyl)-1H-benzo[d]imidazole-6-carboxamido)propyl) Phenyl Ethylmethylcarbamate]", "values": [{"measurement": "IC50", "setting": "[1]", "value": "24 ± 1", "unit": "µM"}, {"measurement": "SI (selectivity index)", "setting": "[2]", "value": 1.25}, {"measurement": "IC50", "setting": "[2]", "value": "19.2 ± 0.7", "unit": "µM"}]}, {"smiles": "CCN(C)C(=O)Oc1cccc(NC(=O)c2cccc3[nH]c(-c4ccccc4O)nc23)c1", "note": "[Compound 5a, 3-(2-(2-Hydroxyphenyl)-1H-benzo[d]imidazole-4-carboxamido)phenyl Ethylmethylcarbamate]", "values": [{"measurement": "IC50", "setting": "[1]", "value": "17.6 ± 0.4", "unit": "µM"}, {"measurement": "SI (selectivity index)", "setting": "[2]", "value": 19.6}, {"measurement": "IC50", "setting": "[2]", "value": "0.9 ± 0.1", "unit": "µM"}, {"measurement": "Appearance of Aβ42 aggregation in TEM images", "setting": "Aβ42 + Cu(II) fibrils", "value": "sparser amyloid aggregation"}, {"measurement": "Aβ42 fibril width", "setting": "Aβ42 + Cu(II) fibrils", "value": "4.9 nm and 4.9 ± 0.2 nm"}]}, {"smiles": "CCN(C)C(=O)Oc1cccc(CNC(=O)c2cccc3[nH]c(-c4ccccc4O)nc23)c1", "note": "[Compound 5b, 3-((2-(2-Hydroxyphenyl)-1H-benzo[d]imidazole-4-carboxamido)methyl) Phenyl Ethylmethylcarbamate]", "values": [{"measurement": "IC50", "setting": "[1]", "value": "31.7 ± 0.1", "unit": "µM"}, {"measurement": "SI (selectivity index)", "setting": "[2]", "value": 105.7}, {"measurement": "IC50", "setting": "[2]", "value": "0.3 ± 0.01", "unit": "µM"}, {"measurement": "Appearance of Aβ42 aggregation in TEM images", "setting": "Aβ42 + Cu(II) fibrils", "value": "sparser amyloid aggregation"}, {"measurement": "Aβ42 fibril width", "setting": "Aβ42 + Cu(II) fibrils", "value": 4.1, "unit": "nm"}]}, {"smiles": "CCN(C)C(=O)Oc1ccc(CCCNC(=O)c2cccc3[nH]c(-c4ccccc4O)nc23)cc1", "note": "[Compound 5d, 4-(3-(2-(2-Hydroxyphenyl)-1H-benzo[d]imidazole-4-carboxamido) Propyl) Phenyl Ethyl(methyl)carbamate]", "values": [{"measurement": "IC50", "setting": "[1]", "value": "21.4 ± 0.4", "unit": "µM"}, {"measurement": "SI (selectivity index)", "setting": "[2]", "value": 12.6}, {"measurement": "IC50", "setting": "[2]", "value": "1.7 ± 0.2", "unit": "µM"}, {"measurement": "Appearance of Aβ42 aggregation in TEM images", "setting": "Aβ42 + Cu(II) fibrils", "value": "sparser amyloid aggregation"}, {"measurement": "Aβ42 fibril width", "setting": "Aβ42 + Cu(II) fibrils", "value": 3.9, "unit": "nm"}]}]}
